The source of these data is patent publication US20260276624A1, “PROPHYLACTIC OR THERAPEUTIC AGAINST EXACERBATION OR RECURRENCE OF CANCER, AND SCREENING METHOD THEREFOR” (KEIO UNIVERSITY, priority 2022, published 2026).

The subject of assay [1] is human colorectal cancer organoids. Kind of assay: Colony formation of sorted cells after camptothecin treatment of organoids. In kind it is cell-based. Conditions: 50 nM; 1,000 sorted cells cultured; day 13 after sorting. Here is the method:
The human colorectal cancer organoids were treated with camptothecin (CPT) which is a topoisomerase inhibitor (50 nM). Subsequently, the LGR5-positive p27-positive cells, the LGR5-positive p27-negative cells, LGR5-negative p27-positive cells, and LGR5-negative p27-negative cells were sorted and collected with a cell sorter, and 1,000 cells of each type were cultured.
The numerical values in FIG. 4 show the number of colonies (average value±standard error). The scale bar is 1 mm.

In assay [2] the test system is COL17A1 KO human colorectal cancer organoids. Kind of assay: Chemotherapy sensitivity of COL17A1 KO organoids. It counts as cell-based. Conditions: compared to COL17A1 WT and hetero KO organoids. From the text: The chemotherapy sensitivity of COL17A1 KO human colorectal cancer organoids was studied.
In assay [3] the test system is YAP signaling. Kind of assay: Nuclear translocation of YAP in camptothecin-treated organoids (confocal). It counts as cell-based, human. Particulars: CCO7 and CCO32 strains, camptothecin treatment. From the text:
The scale bar is 100 μm. The right side of FIG. 10 is a graph showing results of measuring the proportion of cells containing YAP that has undergone nuclear translocation based on the photographs on the left side of FIG. 10.

Assay [4] has as its system COL17A1, pFAK. Kind of assay: Capillary-based immunoassay for COL17A1, pFAK and total FAK in camptothecin-treated organoids. Particulars: camptothecin 50 nM; CCO7 and CCO32 strains. It counts as cell-based, human.
Assay [5] deals with Human colorectal cancer organoids (CCO32 strain). Kind of assay: Experimental Example 14: organoid xenograft, TEAD inhibitor after irinotecan. It counts as in vivo, NOG mice. The method, then:
The upper row in FIG. 18 is a schematic view showing a schedule of this experiment. Human colorectal cancer organoids (CCO32 strain) were xenotransplanted into the subcutis of immunodeficient NOG mice. Thereafter, irinotecan was administered once a week for three times, followed by administering a TEAD inhibitor over a long period of time to inhibit YAP signaling. Thereafter, administration of the TEAD inhibitor was discontinued. As a TEAD inhibitor, MYF-01-37 (CAS No. 2416417-65-5) was used.
The lower row in FIG. 18 is a group showing change in tumor size in mice of each group over time. In the lower row in FIG. 18, “Vehicle” indicates a result of a group into which only a solvent was administered, “TEADi” indicates a result of a group into which only a TEAD inhibitor was administered, “IRI” indicates a result of a group into which only irinotecan was administered, and “IRI+TEADi” indicates a result of a group into which irinotecan and a TEAD inhibitor were administered.

Assay [6] concerns human colorectal cancer organoids xenotransplanted in mice. Kind of assay: In vivo imaging of survival of LGR5-positive cells after irinotecan. The method, then: Whether or not the LGR5-positive p27-positive cells resistant to the chemotherapeutic agent contribute to relapse or recurrence of tumors after chemotherapy was studied in vivo. Specifically, irinotecan was administered to mice xenotransplanted with human colorectal cancer organoids, followed by in vivo imaging and genetic lineage-tracing of the LGR5-positive p27-positive cells and the LGR5-positive p27-negative cells over time.
FIG. 5 is a graph showing results obtained by measuring the survival rate of LGR5-positive p27-positive cells and LGR5-positive p27-negative cells after administration of irinotecan.

In assay [7] the test system is Doxycycline-inducible YAP/TAZ-knockdown human colorectal cancer organoids. Kind of assay: Experimental Example 13: YAP/TAZ-knockdown organoid xenograft, doxycycline after irinotecan. It counts as in vivo, NOG mice. Particulars: irinotecan once a week for three times, no doxycycline. Here is the method: How the inhibition of YAP signaling affects tumor regrowth after chemotherapy was studied. The upper row in FIG. 17 is a schematic view showing a schedule of this experiment. Doxycycline-inducible YAP/TAZ-knockdown human colorectal cancer organoids were produced and xenotransplanted into the subcutis of immunodeficient NOG mice. Thereafter, irinotecan was administered once a week for three times, followed by administering doxycycline over a long period of time to inhibit YAP signaling. Thereafter, administration of doxycycline was discontinued. The lower row in FIG. 17 is a group showing change in tumor size in mice of each group over time. In the lower row in FIG. 17, “Irinotecan” indicates a result of the group into which only irinotecan was administered, and “Irinotecan +Dox” indicates a result of the group into which irinotecan and doxycycline were administered.

The test system is the same in assay [8]. Kind of assay: Experimental Example 12: doxycycline-inducible YAP/TAZ-knockdown organoid xenograft, irinotecan. In kind it is in vivo, NOG mice. Particulars: irinotecan only. Here is the method:
The upper row in FIG. 15 is a schematic view showing a schedule of this experiment. Doxycycline-inducible YAP/TAZ-knockdown human colorectal cancer organoids were produced and xenotransplanted into the subcutis of immunodeficient NOG mice. Thereafter, irinotecan was administered. […] The scale bar is 100 μm. In the lower row in FIG. 15, “Control” indicates a result of a group into which neither irinotecan nor doxycycline has been administered, “Dox” indicates a result of a group into which only doxycycline was administered, “Irinotecan” indicates a result of a group into which only irinotecan was administered, and “Irinotecan +Dox” indicates a result of a group into which irinotecan and doxycycline were administered. FIG. 16 is a group showing change in tumor size in mice of each group over time. As a result, in FIG. 16, “Control,” “Dox,” “Irinotecan,” and “Irinotecan +Dox” show the same meaning as in the lower row in FIG. 15. In addition, “*” indicates a significant difference at p<0.05.

Assay [9] relates to COL17A1 KO human colorectal cancer organoids xenotransplanted in mice. The assay is described as follows: Tumor size after irinotecan in COL17A1 KO xenografts. It counts as in vivo. Conditions: COL17A1 KO vs COL17A1 WT xenografts. The method, then:
Subsequently, irinotecan was administered to mice xenotransplanted with COL17A1 KO human colorectal cancer organoids, and the tumor size was measured over time. The upper row in FIG. 8 is a schematic view showing a schedule of this experiment. The lower row in FIG. 8 is a graph showing change in tumor size over time. […] In addition, indicates a significant difference at p<0.05.

Assay [10] relates to human colorectal cancer organoids (CCO32 strain). The assay is described as follows: Camptothecin treatment with or without FAK inhibitor, proportion of LGR5-positive p27-positive cells. It counts as cell-based. Conditions: co-treatment with camptothecin; FAK inhibitor 10 nM, 24 hours / 10 μm as printed; camptothecin 5 days. Here is the method: The scale bar is 100 μm. As a FAK inhibitor, PF573228 (CAS No. 869288-64-2) was used (10 μm). In FIG. 13, “FAKi” indicates a FAK inhibitor. FIG. 14 is a graph showing results of measuring the proportion of the LGR5-positive p27-positive cells when the human colorectal cancer organoids are treated or not treated with camptothecin for 5 days in the presence or absence of a FAK inhibitor. In FIG. 14, “N.S.” indicates no significant difference.

In assay [11] the test system is COL17A1 KO human colorectal cancer organoids. Kind of assay: YAP signaling inhibitor on COL17A1 KO organoids, proportion of LGR5-positive p27-positive cells. It counts as cell-based. Particulars: 20 μM, 2 days. The method, then: A YAP signaling inhibitor was allowed to act on COL17A1 KO organoids to study an effect on dormancy of cancer stem cells. As a YAP signaling inhibitor, MYF-01-37 (CAS No. 2416417-65-5), a low-molecular-weight TEAD inhibitor (TEADi) that disrupts YAP/TAZ-TEAD protein-protein interactions, was used (20 μM, 2 days). […] The scale bar is 100 μm. The right side of FIG. 11 is a graph showing results of measuring the proportion of LGR5-positive p27-positive cells based on the photographs on the left side of FIG. 11.

[12] abbreviates: irinotecan only, no TEAD inhibitor.

With `CC[C@@]1(O)C(=O)OCc2c1cc1n(c2=O)Cc2cc3ccccc3nc2-1` [camptothecin], in [1], the “colony formation of LGR5-positive p27-negative cells after camptothecin treatment” value is “showed no colony formation” and the “colony formation of LGR5-positive p27-positive cells after camptothecin treatment” value was “showed colony formation”. The “sensitivity of COL17A1 KO organoids to camptothecin” value in assay [2] is given as “more sensitive”. For the same compound, the “YAP signaling (nuclear translocation of YAP) in LGR5-positive p27-positive cells” value in [3] is on record as “activates YAP signaling”. For the same compound, in assay [4], the “expression of COL17A1” value is listed as “expression of COL17A1 was deleted” and the “phosphorylation of FAK” value is given as “phosphorylation of FAK occurred”.
On to `CCc1c2c(nc3ccc(OC(=O)N4CCC(N5CCCCC5)CC4)cc13)-c1cc3c(c(=O)n1C2)COC(=O)[C@]3(O)CC` [irinotecan], for which, in [5] (setting [12]), the “therapeutic effect (tumor size over time)” value is listed as “transient therapeutic effect” and the “time of cancer regrowth” value is roughly 40 days. In assay [6], the “survival of LGR5-positive p27-negative cells after administration of irinotecan” value was “disappeared during an observation period”; the “survival of LGR5-positive p27-positive cells after administration of irinotecan” value was “tolerated chemotherapy and remained”. In assay [7], the “therapeutic effect (tumor size over time)” value is “transient therapeutic effect” and the “time of cancer regrowth” value is roughly 40 days. In assay [8], the “therapeutic effect (tumor size over time)” value is given as “transient”. For the same compound, the “nuclear translocation of YAP in graft” value in [8] (three days from administration, immunostaining) is listed as “resulted in nuclear translocation of YAP in vivo”. Moreover, the “tumor regeneration after administration of irinotecan” value in assay [9] is reported as “more inhibited in COL17A1 KO xenografts than in COL17A1 WT xenografts”.
As for `CS(=O)(=O)c1cccc(CNc2nc(Nc3ccc4c(c3)CCC(=O)N4)ncc2C(F)(F)F)c1` [PF573228], the “cell cycle reentry of LGR5-positive p27-positive cells after camptothecin exposure” value in [10] is on record as “inhibited cell cycle reentry”.
As for `C=CC(=O)N1CCC(C)(Nc2cccc(C(F)(F)F)c2)C1` (stereo not shown) [MYF-01-37], the tumor size result in assay [5] (TEAD inhibitor after irinotecan (once a week for three times)) is given as “tumor size was reduced to a minimum”. Moreover, the tumor inhibition effect result in assay [5] (TEAD inhibitor alone) is recorded as “did not show any tumor inhibition effect”. In addition, in [11], the “p27-positive cells in COL17A1 KO organoids” value is on record as “led to reappearance of p27-positive cells”.
